Data as given in patent US20230416227A1, “PLASMA KALLIKREIN INHIBITORS” (Merck Sharp & Dohme LLC, priority 2020, published 2023).

Columns and labels:
human factor XIa = human factor XIa (Homo sapiens, UniProt P03951); assay: Factor XIa Assay; type: biochemical; settings: human factor XIa 0.04 nM, substrate GPR-AFC, 30 min pre-incubation at 25° C., pH 7.4; read-out: FXIa IC50
Human plasma kallikrein = biological target: T1, Human plasma kallikrein (Homo sapiens, UniProt P03952); assay: Plasma Kallikrein Assay; type: biochemical; settings: purified Human plasma kallikrein 0.5 nM, substrate Acetyl-K-P-R-AFC, pH 7.4
T1 construct: yields a heavy chain (371 amino acids) and a light chain (248 amino acids); purchased Enzyme Research Laboratories
T1 sequence (P03952 391-638 limits assumed): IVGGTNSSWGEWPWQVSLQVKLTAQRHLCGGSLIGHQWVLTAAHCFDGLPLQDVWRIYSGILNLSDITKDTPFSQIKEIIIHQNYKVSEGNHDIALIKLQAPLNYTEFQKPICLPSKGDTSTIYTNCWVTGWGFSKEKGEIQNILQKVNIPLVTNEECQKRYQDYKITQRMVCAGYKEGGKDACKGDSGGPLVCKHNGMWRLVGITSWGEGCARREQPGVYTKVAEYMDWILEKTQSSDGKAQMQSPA
T1 sequence (P03952 20-390 partner limits assumed): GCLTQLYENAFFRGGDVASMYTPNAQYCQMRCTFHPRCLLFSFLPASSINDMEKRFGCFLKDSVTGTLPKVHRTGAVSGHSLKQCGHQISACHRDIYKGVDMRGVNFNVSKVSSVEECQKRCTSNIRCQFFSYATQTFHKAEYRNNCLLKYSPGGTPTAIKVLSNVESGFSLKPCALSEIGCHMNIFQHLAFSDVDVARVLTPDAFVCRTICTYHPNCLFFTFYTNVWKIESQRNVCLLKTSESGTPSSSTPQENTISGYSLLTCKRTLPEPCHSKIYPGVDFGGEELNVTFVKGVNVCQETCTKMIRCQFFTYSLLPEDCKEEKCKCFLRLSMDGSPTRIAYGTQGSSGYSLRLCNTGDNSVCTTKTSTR

human factor XIa, sequence (P03951 388-625 limits assumed): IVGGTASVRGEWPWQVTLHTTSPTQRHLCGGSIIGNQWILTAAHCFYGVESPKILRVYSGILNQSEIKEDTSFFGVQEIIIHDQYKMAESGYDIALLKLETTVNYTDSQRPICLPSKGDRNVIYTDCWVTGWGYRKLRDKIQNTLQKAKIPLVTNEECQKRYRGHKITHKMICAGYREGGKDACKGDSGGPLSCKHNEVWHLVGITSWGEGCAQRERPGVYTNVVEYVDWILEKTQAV
human factor XIa, sequence (P03951 19-387 partner limits assumed): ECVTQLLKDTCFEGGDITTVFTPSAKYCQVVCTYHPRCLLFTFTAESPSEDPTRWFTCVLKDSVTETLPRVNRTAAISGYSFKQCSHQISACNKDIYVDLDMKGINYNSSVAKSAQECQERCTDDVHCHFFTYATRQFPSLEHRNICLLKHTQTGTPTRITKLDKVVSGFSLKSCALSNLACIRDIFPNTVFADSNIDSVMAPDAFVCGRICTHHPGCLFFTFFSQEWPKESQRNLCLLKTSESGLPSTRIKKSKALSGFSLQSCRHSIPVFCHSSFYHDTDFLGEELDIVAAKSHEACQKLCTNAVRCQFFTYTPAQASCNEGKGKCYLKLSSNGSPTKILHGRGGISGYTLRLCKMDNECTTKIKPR

| IC50 (human factor XIa) | IC50 (Human plasma kallikrein) | Compound |
| --- | --- | --- |
| 9430 nM | 0.7 nM | CC(c1cnc(N2CC[C@H]2CN2CCC(O)CC2)nc1)n1cc(NC(=O)c2cncc(-c3c(C(F)F)ccc(Cl)c3F)n2)cn1 (stereo partly drawn) [Example 179, 6-(3-Chloro-6-(difluoromethyl)-2-fluorophenyl)-N-(1-(1-(2-((S)-2-((4-hydroxypiperidin-1-yl)methyl)azetidin-1-yl)pyrimidin-5-yl)ethyl)-1H-pyrazol-4-yl)pyrazine-2-carboxamide] |
| 120 nM | 2.8 nM | C[C@@H](O)c1ncc(-c2c(C(F)F)ccc(Cl)c2F)nc1C(=O)Nc1cnn(Cc2cnc(N3CCC3)nc2)c1 (single isomer, unassigned) [Example 135] |
| 3680 nM | 1.8 nM | O=C(Nc1cnn(Cc2cnc(N3C[C@H]4C[C@H]4[C@H]3CN3CC(O)(C(F)(F)F)C3)nc2)c1)c1cncc(-c2c(C(F)F)ccc(Cl)c2F)n1 [Example 155, 6-(3-Chloro-6-(difluoromethyl)-2-fluorophenyl)-N-(1-((2-((1R,2S,5S)-2-((3-hydroxy-3-(trifluoromethyl)azetidin-1-yl)methyl)-3-azabicyclo[3.1.0]hexan-3-yl)pyrimidin-5-yl)methyl)-1H-pyrazol-4-yl)pyrazine-2-carboxamide] |
| 9630 nM | 2 nM | CC(c1cnc(N2CC[C@H]2CN2CC[C@H](O)[C@@H]2C)nc1)n1cc(NC(=O)c2cncc(-c3c(C(F)F)ccc(Cl)c3F)n2)cn1 (stereo partly drawn) [Example 161, 6-(3-Chloro-6-(difluoromethyl)-2-fluorophenyl)-N-(1-(1-(2-((S)-2-(((2S,3S)-3-hydroxy-2-methylpyrrolidin-1-yl)methyl)azetidin-1-yl)pyrimidin-5-yl)ethyl)-1H-pyrazol-4-yl)pyrazine-2-carboxamide] |
| 2320 nM | 14.6 nM | NC(=O)c1ncc(-c2c(C(F)F)ccc(Cl)c2F)nc1C(=O)Nc1cnn(Cc2cnc(N3CCC3)nc2)c1 [Example 138, N^2-(1-((2-(Azetidin-1-yl)pyrimidin-5-yl)methyl)-1H-pyrazol-4-yl)-6-(3-chloro-6-(difluoromethyl)-2-fluorophenyl)pyrazine-2,3-dicarboxamide] |
| 2930 nM | 0.6 nM | O=C(Nc1cnn(Cc2cnc(N3CCCC3CN3CC[C@H](F)C3)nc2)c1)c1cncc(-c2c(C(F)F)ccc(Cl)c2F)n1 (stereo partly drawn) [Example 148, 6-(3-Chloro-6-(difluoromethyl)-2-fluorophenyl)-N-(1-((2-(2-(((S)-3-fluoropyrrolidin-1-yl)methyl)pyrrolidin-1-yl)pyrimidin-5-yl)methyl)-1H-pyrazol-4-yl)pyrazine-2-carboxamide] |
| 2340 nM | 0.4 nM | CC1(O)CCN(C[C@@H]2CCCN2c2ncc(Cn3cc(NC(=O)c4cncc(-c5c(C(F)F)ccc(Cl)c5F)n4)cn3)cn2)C1 (stereo partly drawn) [Example 144, 6-(3-Chloro-6-(difluoromethyl)-2-fluorophenyl)-N-(1-((2-((2S)-2-((3-hydroxy-3-methylpyrrolidin-1-yl)methyl)pyrrolidin-1-yl)pyrimidin-5-yl)methyl)-1H-pyrazol-4-yl)pyrazine-2-carboxamide] |
| 5820 nM | 1 nM | CC(c1cnc(N2CC[C@H]2CN2C[C@@H](O)[C@@H](O)C2)nc1)n1cc(NC(=O)c2cncc(-c3c(C(F)F)ccc(Cl)c3F)n2)cn1 (stereo partly drawn) [Example 167, 6-(3-Chloro-6-(difluoromethyl)-2-fluorophenyl)-N-(1-(1-(2-((S)-2-(((3R,4S)-3,4-dihydroxypyrrolidin-1-yl)methyl)azetidin-1-yl)pyrimidin-5-yl)ethyl)-1H-pyrazol-4-yl)pyrazine-2-carboxamide] |
| 5080 nM | 0.6 nM | CC(c1cnc(N2CC[C@H]2CN2CC(C(C)(C)O)C2)nc1)n1cc(NC(=O)c2cncc(-c3c(C(F)F)ccc(Cl)c3F)n2)cn1 (stereo partly drawn) [Example 175, 6-(3-Chloro-6-(difluoromethyl)-2-fluorophenyl)-N-(1-(1-(2-((S)-2-((3-(2-hydroxypropan-2-yl)azetidin-1-yl)methyl)azetidin-1-yl)pyrimidin-5-yl)ethyl)-1H-pyrazol-4-yl)pyrazine-2-carboxamide] |
| 6020 nM | 1 nM | CC1(O)CN(C[C@@H]2CCCN2c2ncc(Cn3cc(NC(=O)c4cncc(-c5c(C(F)F)ccc(Cl)c5F)n4)cn3)cn2)C1 [Example 152, (S)-6-(3-Chloro-6-(difluoromethyl)-2-fluorophenyl)-N-(1-((2-(2-((3-hydroxy-3-methylazetidin-1-yl)methyl)pyrrolidin-1-yl)pyrimidin-5-yl)methyl)-1H-pyrazol-4-yl)pyrazine-2-carboxamide] |
| 2250 nM | 31.2 nM | O=C(Nc1cnn(Cc2cnc(N3CCCC3CCO)nc2)c1)c1cncc(-c2c(C(F)F)ccc(Cl)c2F)n1 (single isomer, unassigned) [Example 102, (S or R)-6-(3-Chloro-6-(difluoromethyl)-2-fluorophenyl)-N-(1-((2-(2-(2-hydroxyethyl)pyrrolidin-1-yl)pyrimidin-5-yl)methyl)-1H-pyrazol-4-yl)pyrazine-2-carboxamide] |
| 3580 nM | 14.5 nM | O=C(Nc1cnn(C2CCc3cc(N4CCC4)ncc32)c1)c1cncc(-c2c(C(F)F)ccc(Cl)c2F)n1 (single isomer, unassigned) [Example 119, (R or S)-N-(1-(3-(Azetidin-1-yl)-6,7-dihydro-5H-cyclopenta[c]pyridin-7-yl)-1H-pyrazol-4-yl)-6-(3-chloro-6-(difluoromethyl)-2-fluorophenyl)pyrazine-2-carboxamide] |

The remaining lines, values behind:

| Compound | IC50 (human factor XIa) | IC50 (Human plasma kallikrein) |
| --- | --- | --- |
| O=C(Nc1cnn(Cc2cnc(N3CC4CC4C3CO)nc2)c1)c1cncc(-c2c(C(F)F)ccc(Cl)c2F)n1 (single isomer, unassigned) [Example 79, 6-(3-Chloro-6-(difluoromethyl)-2-fluorophenyl)-N-(1-((2-((1R,2S,5S or 1S,2R,5R)-2-(hydroxymethyl)-3-azabicyclo[3.1.0]hexan-3-yl)pyrimidin-5-yl)methyl)-1H-pyrazol-4-yl)pyrazine-2-carboxamide] | 2860 nM | 5.9 nM |
| O=C(Nc1cnn(Cc2cnc(N3CC4CC4C3CO)nc2)c1)c1cncc(-c2c(C(F)F)ccc(Cl)c2F)n1 (single isomer, unassigned) [Example 77, 6-(3-Chloro-6-(difluoromethyl)-2-fluorophenyl)-N-(1-((2-((1R,2S,5S or 1S,2R,5R)-2-(hydroxymethyl)-3-azabicyclo[3.1.0]hexan-3-yl)pyrimidin-5-yl)methyl)-1H-pyrazol-4-yl)pyrazine-2-carboxamide] | 2950 nM | 5.6 nM |
| O=C(Nc1cnn(Cc2ccc(N3CCC3)nc2)c1)c1cncc(-c2c(OC(F)F)ccc(Cl)c2F)n1 [Example 63, N-(1-((6-(Azetidin-1-yl)pyridin-3-yl)methyl)-1H-pyrazol-4-yl)-6-(3-chloro-6-(difluoromethoxy)-2-fluorophenyl)pyrazine-2-carboxamide] | 5040 nM | 17.3 nM |
| O=C(Nc1cnn(Cc2cnc(N3CCC3)nc2C(F)F)c1)c1cncc(-c2c(C(F)F)ccc(Cl)c2F)n1 [Example 19, N-(1-((2-(Azetidin-1-yl)-4-(difluoromethyl)pyrimidin-5-yl)methyl)-1H-pyrazol-4-yl)-6-(3-chloro-6-(difluoromethyl)-2-fluorophenyl)pyrazine-2-carboxamide] | 4630 nM | 14.6 nM |
| O=C(Nc1cnn(Cc2cnc(N3C[C@H]4C[C@H]4[C@H]3CO)nc2)c1)c1cncc(-c2c(C(F)F)ccc(Cl)c2F)n1 [Example 73, 6-(3-Chloro-6-(difluoromethyl)-2-fluorophenyl)-N-(1-((2-((1R,2S,5S)-2-(hydroxymethyl)-3-azabicyclo[3.1.0]hexan-3-yl)pyrimidin-5-yl)methyl)-1H-pyrazol-4-yl)pyrazine-2-carboxamide] | 1490 nM | 3.7 nM |
| Cc1cc(N2CCC2)ncc1Cn1cc(NC(=O)c2cncc(-c3c(C(F)F)ccc(Cl)c3F)n2)cn1 [Example 17, N-(1-((6-(Azetidin-1-yl)-4-methylpyridin-3-yl)methyl)-1H-pyrazol-4-yl)-6-(3-chloro-6-(difluoromethyl)-2-fluorophenyl)pyrazine-2-carboxamide] | 1370 nM | 10.2 nM |
| COc1nc(N2CCC2)ncc1Cn1cc(NC(=O)c2cncc(-c3c(C(F)F)ccc(Cl)c3F)n2)cn1 [Example 23, N-(1-((2-(Azetidin-1-yl)-4-methoxypyrimidin-5-yl)methyl)-1H-pyrazol-4-yl)-6-(3-chloro-6-(difluoromethyl)-2-fluorophenyl)pyrazine-2-carboxamide] | 1760 nM | 26 nM |
| Cc1ncc(-c2c(C(F)F)ccc(Cl)c2F)nc1C(=O)Nc1cnn(Cc2cnc(N3CC(F)(F)C3)c(C)n2)c1 [Example 11, 6-(3-Chloro-6-(difluoromethyl)-2-fluorophenyl)-N-(1-((5-(3,3-difluoroazetidin-1-yl)-6-methylpyrazin-2-yl)methyl)-1H-pyrazol-4-yl)-3-methylpyrazine-2-carboxamide] | 1710 nM | 6.2 nM |
| CC(c1ccc(N2CCC2)nc1)n1cc(NC(=O)c2cncc(-c3c(C(F)F)ccc(Cl)c3F)n2)cn1 (single isomer, unassigned) [Example 38, (R or S)-N-(1-(1-(6-(azetidin-1-yl)pyridin-3-yl)ethyl)-1H-pyrazol-4-yl)-6-(3-chloro-6-(difluoromethyl)-2-fluorophenyl)pyrazine-2-carboxamide] | 2580 nM | 5 nM |
| C[C@@H](c1cnc(N2CC(F)C2)nc1)n1cc(NC(=O)c2cncc(-c3c(C(F)F)ccc(Cl)c3F)n2)cn1 [Example 92, (S)-6-(3-Chloro-6-(difluoromethyl)-2-fluorophenyl)-N-(1-(1-(2-(3-fluoroazetidin-1-yl)pyrimidin-5-yl)ethyl)-1H-pyrazol-4-yl)pyrazine-2-carboxamide] | 5020 nM | 18.5 nM |
